This is an account of results in patent US12338262B2 (Forward Therapeutics, Inc., priority 2022, dated 2025).

pIC50: −log10 of the molar value. A value given as a limit tells only on which side of the number the result lay.

The assay concerns the target TNF-α (Homo sapiens, UniProt P01375). The experiment in a line: TNF-α Induced HEK Blue Cellular Assay. It counts as cell-based. The conditions noted are these: HEK Blue TNFα reporter cells, TNF-α 100 pg/ml, 24 hrs at 37° C., secreted alkaline phosphatase (QUANTI-Blue, 620 nm). As to the method:
TNF-α Induced HEK Bluet Cellular Assay
Test articles were diluted in DMSO and serially diluted into 384 well assay plate (Corning 3765), at final concentrations ranging from […] to 0.5 nM. HEK Blue™ TNFα reporter cells were added at a final density of 10,000 cell per well in assay media [DMEM (Gibco, cat #21063-029), 10% fetal bovine serum (ExcelBio, cat #FND500), 1% Penicillin-Streptomycin (Solarbio, cat #P1400-100]. TNF-α (R&D 210-TA-020/CF) was then added to the assay plate at a final concentration of 100 pg/ml. This plate was then incubated for 24 hrs at 37° C. and 5% CO2. Secreted alkaline phosphatase expression was then measured using QUANTI-Blue™ (Invivogen), according to manufacturer instructions and read on an Envision microplate reader at 620 nm.
Inhibition data for test compound over a range of concentration was plotted as percentage inhibition of the test compound (100%=maximum inhibition). IC50 values were determined after correcting for background [(sample read-mean of low control)/(mean of high control-mean of low control)] where by the low control is DMSO without stimulation and high control is DMSO with stimulation. The IC50 is defined as the concentration of test compound which produces 50% inhibition and was quantified using the 4 parameter logistic equation to fit the data.

TNF-α, sequence (P01375 77-233 limits assumed): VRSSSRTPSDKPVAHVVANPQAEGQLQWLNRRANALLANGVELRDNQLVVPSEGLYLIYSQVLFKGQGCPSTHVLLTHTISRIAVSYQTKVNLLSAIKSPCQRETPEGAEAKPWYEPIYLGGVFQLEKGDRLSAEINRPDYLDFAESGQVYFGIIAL

Broadly, the pIC50 is −log10 of the IC50, conventionally taken in molar units. `CC[C@H](Nc1c(Cl)c(C)nc2cc(F)c(-c3ccc(P(C)(C)=O)nc3)nc12)c1ccccn1` [Example 76, 3-chloro-6-[6-(dimethylphosphoryl)pyridin-3-yl]-7-fluoro-2-methyl-N-[(1S)-1-(pyridin-2-yl)propyl]-1,5-naphthyridin-4-amine] gave a pIC50 of no less than 7.00.
The compound `Cc1nc2cc(F)c(-c3ccc(OCP(C)(C)=O)nc3)nc2c(N[C@H](C)c2ccccc2F)c1Cl` [Example 56, 3-chloro-6-{6-[(dimethylphosphoryl)methoxy]pyridin-3-yl}-7-fluoro-N-[(1R)-1-(2-fluorophenyl)ethyl]-2-methyl-1,5-naphthyridin-4-amine] had a pIC50 of no less than 7.00.
On to `Cc1nc2cc(F)c(-c3ccc(P4(=O)CCOCC4)nc3)nc2c(N[C@H](C)c2cccc(F)c2F)c1Cl` [Example 143, 4-[5-(7-chloro-8-{[(1R)-1-(2,3-difluorophenyl)ethyl]amino}-3-fluoro-6-methyl-1,5-naphthyridin-2-yl)pyridin-2-yl]-1,4lambda5-oxaphosphinan-4-one], for which the negative-log IC50 (pIC50) is 4.52 to 5.00.
As to `Cc1nc2cc(F)c(-c3cnc(P(C)(C)=O)nc3)nc2c(N[C@@H](c2cc(C#N)ccc2F)C(F)F)c1Cl` [Example 36, (S)-3-(1-((3-chloro-6-(2-(dimethylphosphoryl)pyrimidin-5-yl)-7-fluoro-2-methyl-1,5-naphthyridin-4-yl)amino)-2,2-difluoroethyl)-4-fluorobenzonitrile], the pIC50 was no less than 6.00.
With `Cc1cc(P(C)(C)=O)ncc1-c1nc2c(N[C@H](C)c3cc(C#N)ccc3F)c(Cl)c(C)nc2cc1F` [Example 61, 3-[(1R)-1-({3-chloro-6-[6-(dimethylphosphoryl)-4-methylpyridin-3-yl]-7-fluoro-2-methyl-1,5-naphthyridin-4-yl}amino)ethyl]-4-fluorobenzonitrile], the negative-log IC50 (pIC50) is no less than 6.00.
Take `CC[P@@](C)(=O)c1ccc(-c2nc3c(N[C@H](C)c4cc(C#N)ccc4F)c(Cl)c(C)nc3cc2F)cn1` [Example 57]: the pIC50 is no less than 7.00.
For the compound `Cc1nc2cc(F)c(-c3ccc(P(C)(C)=O)nc3)nc2c(N[C@H](C)c2cc(C3CC3)ccc2F)c1Cl` [Example 150, 3-chloro-N-[(1R)-1-(5-cyclopropyl-2-fluorophenyl)ethyl]-6-[6-(dimethylphosphoryl)pyridin-3-yl]-7-fluoro-2-methyl-1,5-naphthyridin-4-amine], the negative logarithm of the IC50 (pIC50) is no less than 6.00.
`CC[C@@H](Nc1c(Cl)c(C)nc2cc(F)c(-c3ccc(P(C)(C)=O)nc3)nc12)c1cc(F)cc(F)c1` [Example 147, 3-chloro-N-[(1R)-1-(3,5-difluorophenyl)propyl]-6-[6-(dimethylphosphoryl)pyridin-3-yl]-7-fluoro-2-methyl-1,5-naphthyridin-4-amine] gave a pIC50 of 5.00 to 6.00.
The same measure for `Cc1nc2cc(F)c(-c3ccc(P(C)(C)=O)nc3)nc2c(N[C@H](C)c2ccc(F)c(F)c2F)c1Cl` (single isomer, unassigned) [Example 109]: no less than 7.00; for `Cc1nc2cc(F)c(-c3ccc(P(C)(C)=O)nc3)nc2c(N[C@H](C)c2cccc(F)c2)c1Cl` [Example 86, 3-chloro-6-[6-(dimethylphosphoryl)pyridin-3-yl]-7-fluoro-N-[(1R)-1-(3-fluorophenyl)ethyl]-2-methyl-1,5-naphthyridin-4-amine]: no less than 7.00; for `Cc1nc2cc(F)c(-c3ccc(OCP(C)(C)=O)nc3)nc2c(N[C@H](C)c2cc(C#N)ccc2F)c1Cl` [Example 33, 3-[(1R)-1-[(3-chloro-6-{6-[(dimethylphosphoryl)methoxy]pyridin-3-yl}-7-fluoro-2-methyl-1,5-naphthyridin-4-yl)amino]ethyl]-4-fluorobenzonitrile]: no less than 7.00.
Regarding `Cc1nc2cc(F)c(-c3ccc(P(C)(C)=O)nc3)nc2c(N[C@H](C)c2cccc(C#N)c2)c1Cl` [Example 43, 3-[(1R)-1-({3-chloro-6-[6-(dimethylphosphoryl)pyridin-3-yl]-7-fluoro-2-methyl-1,5-naphthyridin-4-yl}amino)ethyl]benzonitrile], the pIC50 was no less than 7.00.
`CC[C@H](Nc1c(Cl)c(C)nc2cc(F)c(-c3ccc(P(C)(C)=O)nc3)nc12)c1ccccc1F` [Example 23, 3-chloro-6-[6-(dimethylphosphoryl)pyridin-3-yl]-7-fluoro-N-[(1S)-1-(2-fluorophenyl)propyl]-2-methyl-1,5-naphthyridin-4-amine] had a pIC50 of no less than 7.00.
`CCC(Nc1c(Cl)c(C)nc2cc(F)c(-c3ccc(P(C)(C)=O)nc3)nc12)c1ccn(C)n1` (stereo not drawn) [Example 149, 3-chloro-6-[6-(dimethylphosphoryl)pyridin-3-yl]-7-fluoro-2-methyl-N-[1-(1-methylpyrazol-3-yl)propyl]-1,5-naphthyridin-4-amine]: the pIC50 was 4.52 to 5.00.
Compound `Cc1nc2cc(F)c(-c3ccc(P(C)(C)=O)nc3)nc2c(N[C@H](C)c2ccccc2)c1Cl` [Example 90, 3-chloro-6-[6-(dimethylphosphoryl)pyridin-3-yl]-7-fluoro-2-methyl-N-[(1R)-1-phenylethyl]-1,5-naphthyridin-4-amine] gave a negative logarithm of the IC50 (pIC50) of no less than 7.00.
`Cc1nc2cc(F)c(-c3ccc(P(C)(C)=O)nc3)nc2c(N[C@H](C)c2cc(C(N)=O)ccc2F)c1Cl` [Example 13, 3-[(1R)-1-({3-chloro-6-[6-(dimethylphosphoryl)pyridin-3-yl]-7-fluoro-2-methyl-1,5-naphthyridin-4-yl}amino)ethyl]-4-fluorobenzamide] had a pIC50 of no less than 7.00.
The same measure for `Cc1nc2cc(F)c(-c3ccc(P(C)(C)=O)nc3)nc2c(N[C@H](C)c2cccc(C(F)F)c2)c1Cl` [Example 92, 3-chloro-N-[(1R)-1-[3-(difluoromethyl)phenyl]ethyl]-6-[6-(dimethylphosphoryl)pyridin-3-yl]-7-fluoro-2-methyl-1,5-naphthyridin-4-amine]: no less than 7.00.
The same measure for `CC[C@H](Nc1c(Cl)c(C)nc2cc(F)c(-c3ccc(P(C)(C)=O)nc3)nc12)c1cc(F)cc(F)c1` [Example 148, 3-chloro-N-[(1S)-1-(3,5-difluorophenyl)propyl]-6-[6-(dimethylphosphoryl)pyridin-3-yl]-7-fluoro-2-methyl-1,5-naphthyridin-4-amine]: 5.00 to 6.00; for `Cc1nc2cc(F)c(-c3cnc(P(C)(C)=O)nc3)cc2c(N[C@H](C)c2ccccc2F)c1Cl` [Example 11, 3-chloro-6-[2-(dimethylphosphoryl)pyrimidin-5-yl]-7-fluoro-N-[(1R)-1-(2-fluorophenyl)ethyl]-2-methylquinolin-4-amine]: no less than 7.00; for `Cc1nc2cc(F)c(-c3ccc(P(=O)(O)O)nc3)nc2c(N[C@H](C)c2cc(C#N)ccc2F)c1Cl` [Example 37, diammonium 5-(7-chloro-8-{[(1R)-1-(5-cyano-2-fluorophenyl)ethyl]amino}-3-fluoro-6-methyl-1,5-naphthyridin-2-yl)pyridin-2-ylphosphonate]: 4.52 to 5.00.
In the case of `Cc1nc2cc(F)c(-c3ccc(P(C)(C)=O)nc3)nc2c(N[C@H](C)c2cccc(F)c2F)c1C` [Example 133, N-[(1R)-1-(2,3-difluorophenyl)ethyl]-6-[6-(dimethylphosphoryl)pyridin-3-yl]-7-fluoro-2,3-dimethyl-1,5-naphthyridin-4-amine], the pIC50 was no less than 7.00.
Turning to `Cc1nc2cc(F)c(-c3cnc(P(C)(C)=O)nc3)nc2c(N[C@H](C)c2cc(C#N)cc(F)c2F)c1Cl` [Example 131, 3-[(1R)-1-({3-chloro-6-[2-(dimethylphosphoryl)pyrimidin-5-yl]-7-fluoro-2-methyl-1,5-naphthyridin-4-yl}amino)ethyl]-4,5-difluorobenzonitrile], the pIC50 is no less than 6.00.
`Cc1nc2cc(F)c(-c3ccc(P(C)(C)=O)nc3)nc2c(N[C@@H](C)c2nc(C#N)ccc2F)c1Cl` [Example 122, 6-[(1S)-1-({3-chloro-6-[6-(dimethylphosphoryl)pyridin-3-yl]-7-fluoro-2-methyl-1,5-naphthyridin-4-yl}amino)ethyl]-5-fluoropyridine-2-carbonitrile] had a pIC50 of no less than 7.00.
The compound `Cc1nc2cc(F)c(-c3ccc(P(C)(C)=O)nc3)nc2c(NC2(c3ccccn3)CC2)c1Cl` [Example 111, 3-chloro-6-[6-(dimethylphosphoryl)pyridin-3-yl]-7-fluoro-2-methyl-N-[1-(pyridin-2-yl)cyclopropyl]-1,5-naphthyridin-4-amine] had a pIC50 of no less than 7.00.
For `Cc1nc2cc(F)c(-c3ccc(P(C)(C)=O)nc3)nc2c(N[C@H](C)c2cc(F)cc(C#N)c2)c1Cl` [Example 99, 3-[(1R)-1-({3-chloro-6-[6-(dimethylphosphoryl)pyridin-3-yl]-7-fluoro-2-methyl-1,5-naphthyridin-4-yl}amino)ethyl]-5-fluorobenzonitrile], the pIC50 was no less than 6.00.
Turning to `CC[C@@H](Nc1c(Cl)c(C)nc2cc(F)c(-c3ccc(P(C)(C)=O)nc3)nc12)c1ncccc1F` [Example 69, (R)-(5-(7-chloro-3-fluoro-8-((1-(3-fluoropyridin-2-yl)propyl)amino)-6-methyl-1,5-naphthyridin-2-yl)pyridin-2-yl)dimethylphosphine oxide], the pIC50 is no less than 6.00.
With `Cc1nc2cc(F)c(-c3ccc(P(C)(C)=O)nc3)cc2c(N[C@H](C)c2cc(F)cc(F)c2)c1Cl` [Example 112, 3-chloro-N-[(1R)-1-(3,5-difluorophenyl)ethyl]-6-[6-(dimethylphosphoryl)pyridin-3-yl]-7-fluoro-2-methylquinolin-4-amine], the pIC50 is no less than 6.00.
